How the values were obtained:
Rattus norvegicus [1] = organism: Rattus norvegicus; experiment: Compound was evaluated for the drug discrimination assay and the highest percent of LSD correct responses were determined in rats; assay type: functional
Rattus norvegicus [2] = organism: Rattus norvegicus; experiment: Compound was evaluated for the drug discrimination assay and the ED50 (potency) was determined in rats; assay type: functional

`CCC(C)c1cc(OC)c(CC(C)N)cc1OC.Cl` (stereo not drawn) gave an LSD (Rattus norvegicus [1]) of 70% and an ED50 (Rattus norvegicus [2]) of 1.8 mg/kg.
With `COc1cc(CC(C)N)c(OC)cc1CC(C)C.Cl` (stereo not drawn) the LSD (Rattus norvegicus [1]) was 95% and the ED50 (Rattus norvegicus [2]) was 0.536 mg/kg.
Molecule `COc1cc(CC(C)N)c(OC)cc1C` (stereo not drawn) [DOM] has an LSD (Rattus norvegicus [1]) of 99% and an ED50 (Rattus norvegicus [2]) of 0.148 mg/kg.
`CCN(CC)C(=O)[C@@H]1C=C2c3cccc4[nH]cc(c34)C[C@H]2N(C)C1` [LYSERGIDE] was tested, and the LSD (Rattus norvegicus [1]) was 100% and the ED50 (Rattus norvegicus [2]) was 0.0077 mg/kg.
